Reference: ChEMBL document CHEMBL3885861, “Open TG-GATES”

Species: Rattus norvegicus
Assay: Open TG-GATES - Regimen: Single
Assay type: toxicity, organism-based, Sprague-Dawley
Set-up: regimen Single, gender Male, age 6 weeks
Settings: in vivo, po, 2000 mg/kg, route gavage, dose level High; for APTT / Bas / Eos / Fbg / Hb / Ht / Lym / MCH / MCHC / MCV / Mono / Neu / Plat / RBC / Ret / WBC: tissue Blood; for KIDNEY_L / KIDNEY_R / KIDNEY_TOTAL: tissue Kidney; for LIVER: tissue Liver; for ALP / ALT / AST / BUN / CRE / Ca / Cl / DBIL / GLC / IP / K / LDH / Na / PL / RALB / TBIL / TC / TG / TP / gamma-GTP: tissue Plasma

CC(=O)Oc1ccccc1C(=O)O [ASPIRIN]
TERMINAL_BW (3 h): 220 g
APTT (3 h): 19.5 s
Bas (3 h): 0%
Eos (3 h): 1.2%
Fbg (3 h): 224.8 mg/dL
Hb (3 h): 13.7 g/dL
Ht (3 h): 37.7%
Lym (3 h): 62.2%
MCH (3 h): 21.9 pg
MCHC (3 h): 36.3%
MCV (3 h): 60.4 fL
Mono (3 h): 4.6%
Neu (3 h): 30.4%
Plat (3 h): 124.1 x10_4/uL
RBC (3 h): 625.8 x10_4/ul
Ret (3 h): 8.1%
WBC (3 h): 71.4 x10_2/uL
KIDNEY_L (3 h): 1 g
KIDNEY_R (3 h): 1 g
KIDNEY_TOTAL (3 h): 1.9 g
LIVER (3 h): 8.9 g
ALP (3 h): 991.6 IU/L
ALT (3 h): 41.4 IU/L
AST (3 h): 86.6 IU/L
BUN (3 h): 15.6 mg/dL
CRE (3 h): 0.4 mg/dL
Ca (3 h): 8.3 mg/dL
Cl (3 h): 103.6 meq/L
DBIL (3 h): 0.06 mg/dL
GLC (3 h): 200 mg/dL
IP (3 h): 9 mg/dL
K (3 h): 3.4 meq/L
LDH (3 h): 248.4 IU/L
Na (3 h): 141 meq/L
PL (3 h): 96.4 mg/dL
RALB (3 h): 3.5 g/dL
TBIL (3 h): 0.1 mg/dL
TC (3 h): 62 mg/dL
TG (3 h): 24 mg/dL
TP (3 h): 5.8 g/dL
gamma-GTP (3 h): 1.4 IU/L
TERMINAL_BW (6 h): 217 g
APTT (6 h): 20.8 s
Bas (6 h): 0%
Eos (6 h): 0.8%
Fbg (6 h): 225.6 mg/dL
Hb (6 h): 13.7 g/dL
Ht (6 h): 37.8%
Lym (6 h): 63.8%
MCH (6 h): 22.1 pg
MCHC (6 h): 36.3%
MCV (6 h): 60.8 fL
Mono (6 h): 3%
Neu (6 h): 31.6%
Plat (6 h): 118.3 x10_4/uL
RBC (6 h): 622 x10_4/ul
Ret (6 h): 8.3%
WBC (6 h): 91.9 x10_2/uL
KIDNEY_L (6 h): 1 g
KIDNEY_R (6 h): 1 g
KIDNEY_TOTAL (6 h): 2 g
LIVER (6 h): 8.3 g
ALP (6 h): 843.8 IU/L
ALT (6 h): 35.4 IU/L
AST (6 h): 79 IU/L
BUN (6 h): 17.8 mg/dL
CRE (6 h): 0.4 mg/dL
Ca (6 h): 8.1 mg/dL
Cl (6 h): 104.2 meq/L
DBIL (6 h): 0.056 mg/dL
GLC (6 h): 221.4 mg/dL
IP (6 h): 7.9 mg/dL
K (6 h): 3.2 meq/L
LDH (6 h): 233.4 IU/L
Na (6 h): 140.4 meq/L
PL (6 h): 103.4 mg/dL
RALB (6 h): 3.5 g/dL
TBIL (6 h): 0.1 mg/dL
TC (6 h): 67.8 mg/dL
TG (6 h): 12.2 mg/dL
TP (6 h): 5.7 g/dL
gamma-GTP (6 h): 1.2 IU/L
TERMINAL_BW (9 h): 217.3 g
APTT (9 h): 22.1 s
Bas (9 h): 0%
Eos (9 h): 0.8%
Fbg (9 h): 224.8 mg/dL
Hb (9 h): 13.9 g/dL
Ht (9 h): 38.3%
Lym (9 h): 65%
MCH (9 h): 21.8 pg
MCHC (9 h): 36.3%
MCV (9 h): 60.1 fL
Mono (9 h): 2.2%
Neu (9 h): 31.2%
Plat (9 h): 127.8 x10_4/uL
RBC (9 h): 636.2 x10_4/ul
Ret (9 h): 8%
WBC (9 h): 88.7 x10_2/uL
KIDNEY_L (9 h): 0.9 g
KIDNEY_R (9 h): 0.9 g
KIDNEY_TOTAL (9 h): 1.8 g
LIVER (9 h): 7.9 g
ALP (9 h): 712.8 IU/L
ALT (9 h): 34.4 IU/L
AST (9 h): 77.2 IU/L
BUN (9 h): 15 mg/dL
CRE (9 h): 0.4 mg/dL
Ca (9 h): 8 mg/dL
Cl (9 h): 105.2 meq/L
DBIL (9 h): 0.048 mg/dL
GLC (9 h): 211.4 mg/dL
IP (9 h): 7.6 mg/dL
K (9 h): 3.3 meq/L
LDH (9 h): 212.4 IU/L
Na (9 h): 139.4 meq/L
PL (9 h): 97.2 mg/dL
RALB (9 h): 3.4 g/dL
TBIL (9 h): 0.092 mg/dL
TC (9 h): 59.4 mg/dL
TG (9 h): 11 mg/dL
TP (9 h): 5.6 g/dL
gamma-GTP (9 h): 0.8 IU/L
TERMINAL_BW (24 h): 210.7 g
APTT (24 h): 32.6 s
Bas (24 h): 0%
Eos (24 h): 0.8%
Fbg (24 h): 223 mg/dL
Hb (24 h): 14.7 g/dL
Ht (24 h): 39.8%
Lym (24 h): 69.2%
MCH (24 h): 22 pg
MCHC (24 h): 37%
MCV (24 h): 59.4 fL
Mono (24 h): 2.6%
Neu (24 h): 26.4%
Plat (24 h): 125.8 x10_4/uL
RBC (24 h): 669.4 x10_4/ul
Ret (24 h): 7.5%
WBC (24 h): 56.2 x10_2/uL
KIDNEY_L (24 h): 0.9 g
KIDNEY_R (24 h): 0.9 g
KIDNEY_TOTAL (24 h): 1.9 g
LIVER (24 h): 7 g
ALP (24 h): 912.4 IU/L
ALT (24 h): 30 IU/L
AST (24 h): 138.6 IU/L
BUN (24 h): 14.6 mg/dL
CRE (24 h): 0.4 mg/dL
Ca (24 h): 7 mg/dL
Cl (24 h): 104 meq/L
DBIL (24 h): 0.048 mg/dL
GLC (24 h): 230.6 mg/dL
IP (24 h): 6.3 mg/dL
K (24 h): 3.1 meq/L
LDH (24 h): 232.4 IU/L
Na (24 h): 138.4 meq/L
PL (24 h): 81.6 mg/dL
RALB (24 h): 3.5 g/dL
TBIL (24 h): 0.092 mg/dL
TC (24 h): 44.4 mg/dL
TG (24 h): 24.8 mg/dL
TP (24 h): 5.7 g/dL
gamma-GTP (24 h): 1.4 IU/L
